Reference: US20160115540A1, “PRODRUGS AND DRUGS” (Biogen MA Inc., priority 2013, published 2016)
Structures can show the parent of a compound that is named as a salt.

Test system: jejunum
Assay: Transcriptional profiling on Affymetrix GeneChips, single dose, naïve mice: jejunum
Assay type: in vivo, C57BL/6 mice
Method: Treated mice were sacrificed at 2, 7, or 12 hours. Tissues (liver, spleen, kidney, jejunum, cortex, hippocampus, striatum and whole blood) were collected and analyzed by transcriptional profiling on mouse Affymetrix GeneChips.
Tissues (liver, spleen, kidney, jejunum, cortex, hippocampus, striatum and whole blood) were collected and analyzed by transcriptional profiling on mouse Affymetrix GeneChips.
Animals were exposed to CO2 and whole blood collected via cardiac puncture. Two 100 μl aliquots of whole blood were collected in 1.5 mL microcentrifuge tubes and snap frozen in liquid nitrogen. Peripheral (liver, spleen, kidney and jejunum) and CNS brain (cerebellum, hippocampus, striatum and cortex) tissues were harvested and snap frozen in liquid nitrogen, with special care taken to collect tissues of similar size and from the same location. All samples were stored at −80° C. until RNA extraction was conducted.
For RNA preparation, frozen tissues were placed in 2 mL RNAse-free 96-well blocks with 1.5 mL QIAzol Lysis Reagent (QIAgen) and a 3.2 mm stainless steel bead (BioSpec Products, Bartlesville, Okla.). Tissues were disrupted for four cycles of 45 seconds in a Mini-Beadbeater (Biospec Products). RNA was extracted in chloroform and the aqueous phase was mixed with an equal volume of 70% ethanol. Extracted RNA was applied to RNeasy 96 plates and purified by the spin method according to the manufacturer's protocol (RNeasy 96 Universal Tissue Protocol, QIAgen, Hilden Germany).
Automated sample amplifications and biotin labelings were carried out using the NuGEN Ovation RNA Amplification system V2 (Cat #3100), Ovation WB reagent (Cat #1300) and Encore Biotin module (Cat #4200) (NuGEN Technologies, Inc, San Carlos, Calif.) according to manufacturer's recommendations using an Arrayplex automated liquid handler (Beckman Coulter, Indianapolis, Ind.). Two micrograms of biotin labeled sscDNA probe were hybridized to Affymetrix GeneChip Affymetrix HT_MG-430_PM plate arrays with modified conditions as described in Allaire et al. Washing and staining of the hybridized arrays were completed as described in the GeneChip Expression analysis technical manual for HT plate arrays using the Genechip® Array Station (Affymetrix, Santa Clara, Calif.) with modifications as described in Allaire et al. The processed GeneChip® plate arrays were scanned using GeneTitan scanner (Affymetrix, Santa Clara, Calif.).
Affymetrix scans were subject to quality control (QC) measures. These tests included a visual inspection of the distribution of raw signal intensities and an assessment of RNA degradation, relative log expression (RLE), and normalized unsealed standard error (NUSE). All sample scans that passed these QC metrics were included in the analysis.
All CEL files were subjected to GC-content-based Robust Multi-array Average (GCRMA) normalization (version 2.20.0) (Irizarry R A, et al. Nucleic Acids Res 2003; 31:e15; Li C, et al. Genome Biol 2001; 2:[…]0032). Expression levels were log (base 2) transformed.
All calculations and analyses were carried out using R (version 2.11.1) and Bioconductor computational tools (Gentleman R. Springer Science+Business Media 2005).

COC(=O)/C=C/C(=O)O [MMF, monomethyl fumarate]
FC Akr1c12 (1422000_PM_at) (100MMF-vs-Veh, 12 h): 1.52
FC Akr1c13 (1418672_PM_at) (100MMF-vs-Veh, 12 h): 2.01
FC Aldh1a7 (1418601_PM_at) (100MMF-vs-Veh, 12 h): 1.74
FC Apob (1457554_PM_at) (100MMF-vs-Veh, 12 h): −1.54
FC C030026M15Rik (1431418_PM_at) (100MMF-vs-Veh, 12 h): −1.81
FC Dio1 (1417991_PM_at) (100MMF-vs-Veh, 12 h): −1.51
FC Ephx1 (1422438_PM_at) (100MMF-vs-Veh, 12 h): 2.17
FC Gss (1448273_PM_at) (100MMF-vs-Veh, 12 h): 1.57
FC Gstm1 (1416416_PM_x_at) (100MMF-vs-Veh, 12 h): 3.70
FC Gstm2 (1416411_PM_at) (100MMF-vs-Veh, 12 h): 2.20
FC Kif1b (1451642_PM_at) (100MMF-vs-Veh, 12 h): −1.51
Number of genes, DMF Only / MMF Only (Jejunum): 35
6-Sep, septin 6 (1424181_PM_at) differential expression (Jejunum, 2 hr): 1.56
Areg (1421134_PM_at) differential expression (Jejunum, 2 hr): 2.71
Blvrb (1451386_PM_at) differential expression (Jejunum, 2 hr): 1.57
Bmp2 (1423635_PM_at) differential expression (Jejunum, 2 hr): −1.55
Cbr1 (1460196_PM_at) differential expression (Jejunum, 2 hr): 1.53
Dnase2a (1430135_PM_at) differential expression (Jejunum, 2 hr): 1.79
Dppa5a (1416552_PM_at) differential expression (Jejunum, 2 hr): 2.64
Ereg (1419431_PM_at) differential expression (Jejunum, 2 hr): 2.00
Ero1l (1419030_PM_at) differential expression (Jejunum, 2 hr): 1.90
Esd (1441604_PM_at) differential expression (Jejunum, 2 hr): 1.52
Figf (1438953_PM_at) differential expression (Jejunum, 2 hr): 1.63
G6pd2 /// G6pdx (1422327_PM_s_at) differential expression (Jejunum, 2 hr): 1.74
Gabarapl1 (1416418_PM_at) differential expression (Jejunum, 2 hr): 1.52
Gclc (1424296_PM_at) differential expression (Jejunum, 2 hr): 3.99
Gsr (1421816_PM_at) differential expression (Jejunum, 2 hr): 2.19
Gss (1441931_PM_x_at) differential expression (Jejunum, 2 hr): 1.92
Gsta3 (1423436_PM_at) differential expression (Jejunum, 2 hr): 3.64
Gsta4 (1416368_PM_at) differential expression (Jejunum, 2 hr): 1.73
Gstm1 (1416416_PM_x_at) differential expression (Jejunum, 2 hr): 2.38
Hfe (1422645_PM_at) differential expression (Jejunum, 2 hr): 1.73
Hmox1 (1448239_PM_at) differential expression (Jejunum, 2 hr): 1.81
Htatip2 (1451814_PM_a_at) differential expression (Jejunum, 2 hr): 1.53
Lpin2 (1452837_PM_at) differential expression (Jejunum, 2 hr): 1.61
Lrp8 (1440882_PM_at) differential expression (Jejunum, 2 hr): 2.23
Mafg (1448916_PM_at) differential expression (Jejunum, 2 hr): 1.95
Nqo1 (1423627_PM_at) differential expression (Jejunum, 2 hr): 2.16
Osgin1 (1424022_PM_at) differential expression (Jejunum, 2 hr): 1.98
Pgm2 (1437240_PM_at) differential expression (Jejunum, 2 hr): 2.09
Prr5l (1452834_PM_at) differential expression (Jejunum, 2 hr): −1.64
Prss8 (1418320_PM_at) differential expression (Jejunum, 2 hr): 2.41
Setd4 (1435405_PM_at) differential expression (Jejunum, 2 hr): 2.11
Slc2a1 (1426600_PM_at) differential expression (Jejunum, 2 hr): 1.68
Slc40a1 (1417061_PM_at) differential expression (Jejunum, 2 hr): 2.73
Slc48a1 (1450410_PM_a_at) differential expression (Jejunum, 2 hr): 1.62
Slfn2 (1450165_PM_at) differential expression (Jejunum, 2 hr): −1.82
Sos1 (1421886_PM_at) differential expression (Jejunum, 2 hr): −1.57
Srxn1 (1425351_PM_at) differential expression (Jejunum, 2 hr): 1.77
St3gal6 (1449078_PM_at) differential expression (Jejunum, 2 hr): 1.52
Tkt (1436605_PM_at) differential expression (Jejunum, 2 hr): 1.73
Tnfaip3 (1433699_PM_at) differential expression (Jejunum, 2 hr): −1.67
Tox3 (1436600_PM_at) differential expression (Jejunum, 2 hr): 1.81
Ugt2b5 (1419622_PM_at) differential expression (Jejunum, 2 hr): 3.13
Abcc2 (1450109_PM_s_at) differential expression (Jejunum, 7 hr): 1.51
Abcc3 (1428988_PM_at) differential expression (Jejunum, 7 hr): 2.26
Acsm5 (1437662_PM_at) differential expression (Jejunum, 7 hr): 1.71
Akr1c12 /// Akr1c13 (1450455_PM_s_at) differential expression (Jejunum, 7 hr): 1.58
Akr1c13 (1418672_PM_at) differential expression (Jejunum, 7 hr): 1.86
Aldh1a7 (1418601_PM_at) differential expression (Jejunum, 7 hr): 1.86
Areg (1421134_PM_at) differential expression (Jejunum, 7 hr): 2.93
Asns (1451095_PM_at) differential expression (Jejunum, 7 hr): 1.60
Blvrb (1451386_PM_at) differential expression (Jejunum, 7 hr): 1.55
Capn13 (1437960_PM_at) differential expression (Jejunum, 7 hr): −1.75
Cbr1 (1460196_PM_at) differential expression (Jejunum, 7 hr): 1.83
Ces1e (1419510_PM_at) differential expression (Jejunum, 7 hr): 2.44
Ddc (1426215_PM_at) differential expression (Jejunum, 7 hr): 2.03
Dppa5a (1416552_PM_at) differential expression (Jejunum, 7 hr): 1.88
Enkur (1428960_PM_at) differential expression (Jejunum, 7 hr): −1.56
Entpd5 (1433763_PM_at) differential expression (Jejunum, 7 hr): 1.60
Esd (1441604_PM_at) differential expression (Jejunum, 7 hr): 2.15
Fam162a (1451385_PM_at) differential expression (Jejunum, 7 hr): 1.67
G6pd2 /// G6pdx (1422327_PM_s_at) differential expression (Jejunum, 7 hr): 2.06
G6pdx (1448354_PM_at) differential expression (Jejunum, 7 hr): 1.76
Gclc (1424296_PM_at) differential expression (Jejunum, 7 hr): 2.87
Gm3776 /// Gsta1 /// Gsta2 (1421041_PM_s_at) differential expression (Jejunum, 7 hr): 1.90
Gm14446 (1435529_PM_at) differential expression (Jejunum, 7 hr): −1.65
Gpx2 (1449279_PM_at) differential expression (Jejunum, 7 hr): 1.53
Gsr (1421816_PM_at) differential expression (Jejunum, 7 hr): 3.13
Gss (1441931_PM_x_at) differential expression (Jejunum, 7 hr): 2.20
Gsta3 (1423436_PM_at) differential expression (Jejunum, 7 hr): 5.71
Gsta4 (1416368_PM_at) differential expression (Jejunum, 7 hr): 2.52
Gstm1 (1416416_PM_x_at) differential expression (Jejunum, 7 hr): 4.80
Gstm2 (1416411_PM_at) differential expression (Jejunum, 7 hr): 2.09
Gstm4 (1424835_PM_at) differential expression (Jejunum, 7 hr): 5.75
Gstm6 (1422072_PM_a_at) differential expression (Jejunum, 7 hr): 2.23
